Source: US20240067613A1, “NOVEL QUINAZOLINE DERIVATIVES AS SOS1 INHIBITORS AND USE THEREOF” (HANMI PHARMACEUTICAL CO., LTD., priority 2020, published 2024)

Biological target: T1, SOS1 binding to KRAS G12C (Homo sapiens, UniProt Q07889)
T1 construct: consisting of amino acid residues 564 to 1049 which are the catalytic domain; purchased Reaction Biology Corporation MSC-11-502 (SOS1-Strep); MSC-11-538 (KRAS G12C)
T1 sequence (Q07889 564-1049): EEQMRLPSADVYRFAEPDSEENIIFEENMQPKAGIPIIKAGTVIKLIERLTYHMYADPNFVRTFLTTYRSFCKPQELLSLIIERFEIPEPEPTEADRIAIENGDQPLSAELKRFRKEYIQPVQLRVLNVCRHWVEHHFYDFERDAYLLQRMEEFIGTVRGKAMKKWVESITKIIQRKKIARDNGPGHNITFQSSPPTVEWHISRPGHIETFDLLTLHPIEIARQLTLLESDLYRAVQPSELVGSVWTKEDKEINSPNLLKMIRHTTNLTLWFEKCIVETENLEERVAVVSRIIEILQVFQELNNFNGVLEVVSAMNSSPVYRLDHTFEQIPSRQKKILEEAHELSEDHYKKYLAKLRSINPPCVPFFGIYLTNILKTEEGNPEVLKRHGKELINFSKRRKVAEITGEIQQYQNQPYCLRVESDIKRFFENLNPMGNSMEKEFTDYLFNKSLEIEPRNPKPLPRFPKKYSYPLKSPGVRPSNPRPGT
Assay: SOS1 GTP substitution inhibition test (HTRF/TR-FRET, KRAS G12C-SOS1 binding inhibitory ability)
Type: biochemical
Conditions: HTRF, GST-KRAS G12C (2-169), SOS1-Strep (564-1049), 1.6, 8, 40, 200, 1,000 nM
Description: In order to determine whether the substitution function of SOS1 binding to KRAS G12C is inhibited by the above-described example compounds, a homogeneous time-resolved fluorescence (HTRF) test was performed using G12C(#MSC-11-538) and SOS1-Strep(#MSC-11-502) purchased from Reaction Biology Corporation (MA, USA). The activity of SOS1 enzyme was determined by measuring the amount of GTP bound to KRAS G12C proteins, using the principle of time-resolved fluorescence energy transfer (TR-FRET). Based on the principle that terbium bound to the GST-binding antibody of the GST-KRAS G12C protein acts as a donor of fluorescence resonance energy transfer (FRET), and the GTP bound to the KRAS G12C protein is labeled with the fluorescent agent DY-647P1 and acts as a receiver, when the more GTP is bound to the KRAS G12C protein by the substitution reaction of SOS1 according to this test, the higher HTRF or FRET signal is measured. To summarize, glutathione S-transferase (GST)-tagged KRAS G12C proteins (consisting of amino acid residues 2 to 169) required for the reaction, streptavidin-tagged SOS1 proteins (consisting of amino acid residues 564 to 1049 which are the catalytic domain), anti-GST antibody (#61[…]) purchased from CISBIO corporation, nucleic acid (#NU-820-647P1) purchased from Jena Bioscience GmbH were mixed in a buffer solution formed from 10 mM HEPES pH7.4, 150 mM NaCl, 5 mM MgCl2, and 1 mM dithiothreitol (DTT), and the mixture was added to a 384-well plate and reacted at room temperature. Next, FRET signals were measured with a Perkin Elmer Envision microplate reader. In this case, an excitation signal (excitation) was measured at 320 nm, and an emission signal (emission) was measured at 615/665 nm. The fluorescence measurement value when the SOS1 protein was not included was calculated as a background signal value, and the background signal value was subtracted from all of the measured HTRF values. The fluorescence measurement value when the synthesized compound was not included was measured as a control value, and this value was selected as a reference point of 100%. For each of the example compounds, fluorescence was measured at concentrations of 1.6, 8, 40, 200, and 1,000 nM (5 points, 5-fold), and the 50% activity inhibition value (IC50) of each of the compounds was calculated using GraphPad Prism. When the IC50 value was 50 nM or less, the inhibitory ability was denoted as +++. When the IC50 value was more than 50 nM and 100 nM or less, the inhibitory ability was denoted as ++. When the IC50 value was more than 100 nM, the inhibitory ability was denoted as +.

| SMILES | IC50 [nM] |
| --- | --- |
| COc1cc2c(N[C@H](C)c3cc(N)cc(C(F)(F)F)c3)nc(CF)nc2cc1C(=O)N1CCOCC1 [Example 33, (R)-(4-((1-(3-amino-5-(trifluoromethyl)phenyl)ethyl)amino)-2-(fluoromethyl)-6-methoxyquinazolin-7-yl)(morpholino)methanone] | > 100 |
| COc1cc2c(N[C@H](C)c3cc(N)cc(C(F)(F)F)c3)nc(C)nc2cc1OCC1COC1 [Example 39, (R)-N-(1-(3-amino-5-(trifluoromethyl)phenyl)ethyl)-6-methoxy-2-methyl-7-(oxetane-3-ylmethoxy)quinazoline-4-amine] | > 100 |
| COc1cc2c(N[C@H](C)c3cc(N)cc(C(F)(F)F)c3)nc(C)nc2cc1CN1CCOCC1 [Example 34, (R)-N-(1-(3-amino-5-(trifluoromethyl)phenyl)ethyl)-6-methoxy-2-methyl-7-(morpholinomethyl)quinazoline-4-amine] | > 100 |
| COc1cc2c(N[C@H](C)c3cc(N)cc(-c4ccoc4)c3)nc(C)nc2cc1C(=O)N1CCOCC1 [Example 28, (R)-(4-((1-(3-amino-5-(furan-3-yl)phenyl)ethyl)amino)-6-methoxy-2-methylquinazolin-7-yl)(morpholino)methanone] | ≤ 50 |
| COc1cc2c(N[C@H](C)c3cc(N)cc(C(F)(F)F)c3)nc(C)nc2cc1C(=O)N1CC(F)C1 [Example 11, (R)-(4-((1-(3-amino-5-(trifluoromethyl)phenyl)ethyl)amino)-6-methoxy-2-methylquinazoline-7-yl)(3-fluorazetidine-1-yl)methanone] | > 100 |
| COCCOc1cc2c(N[C@H](C)c3cc(N)cc(C(F)(F)F)c3)nc(C)nc2cc1C(=O)N1CCOCC1 [Example 32, methyl (R)-(4-((1-(3-amino-5-(trifluoromethyl)phenyl)ethyl)amino)-6-(2-methoxyethoxy)-2-methylquinazolin-7-yl)(morpholino)methanone] | > 100 |
| COc1cc2c(N[C@H](C)c3cc(N)cc(C4CC4)c3)nc(C)nc2cc1C(=O)N1CCOCC1 [Example 24, (R)-(4-((1-(3-amino-5-cyclopropylphenyl)ethyl)amino)-6-methoxy-2-methylquinazolin-7-yl)(morpholino)methanone] | 50 to 100 |
| COc1cc2c(N[C@H](C)c3cccc(C(F)F)c3F)nc(C)nc2cc1C(=O)N1CCOCC1 [Example 6, (R)-(4-((1-(3-(difluoromethyl)-2-fluorophenyl)ethyl)amino)-6-methoxy-2-methylquinazoline-7-yl)(morpholino)methanone] | 50 to 100 |
| COc1cc2c(N[C@H](C)c3cc(N)cc(C(F)(F)F)c3)nc(C)nc2cc1OC1CCOCC1 [Example 36] | 50 to 100 |
| COc1cc2c(N[C@H](C)c3cc(N)cc(C(F)(F)F)c3)nc(C)nc2cc1C(=O)N1CCNCC1 [Example 9, (R)-(4-((1-(3-amino-5-(trifluoromethyl)phenyl)ethyl)amino)-6-methoxy-2-methylquinazoline-7-yl)(piperazine-1-yl)methanone] | ≤ 50 |
| COc1cc2c(N[C@H](C)c3cccc(N)c3OC)nc(C)nc2cc1C(=O)N1CCOCC1 [Example 19, (R)-(4-((1-(3-amino-2-methoxyphenyl)ethyl)amino)-6-methoxy-2-methylquinazolin-7-yl)(morpholino)methanone] | > 100 |

Other lines, results leading:

| IC50 [nM] | SMILES |
| --- | --- |
| ≤ 50 | COCCNc1cc2c(N[C@H](C)c3cc(N)cc(C(F)(F)F)c3)nc(C)nc2cc1C(=O)N1CCS(=O)(=O)CC1 [Example 68, (R)-(4-((1-(3-amino-5-(trifluoromethyl)phenyl)ethyl)amino)-6-((2-methoxyethyl)amino)-2-methylquinazoline-7-yl)(1,1-dioxothiomorpholino)methanone] |
| 50 to 100 | Cc1nc(N[C@H](C)c2cc(N)cc(C(F)(F)F)c2)c2cc(N(C)C)c(C(=O)N3CCOCC3)cc2n1 [Example 41, (R)-(4-((1-(3-amino-5-(trifluoromethyl)phenyl)ethyl)amino)-6-(dimethylamino)-2-methylquinazoline-7-yl)(morpholino)methanone] |
| 50 to 100 | COCCNc1cc2c(N[C@H](C)c3cc(N)cc(C(F)(F)F)c3)nc(C)nc2cc1C(=O)N1CCOCC1 [Example 44, (R)-(4-((1-(3-amino-5-(trifluoromethyl)phenyl)ethyl)amino)-6-((2-methoxyethyl)amino)-2-methylquinazoline-7-yl)(morpholino)methanone] |
| ≤ 50 | COCCNc1cc2c(N[C@H](C)c3cc(N)cc(C(F)F)c3F)nc(C)nc2cc1C(=O)N1CCOCC1 [Example 56, (R)-(4-((1-(5-amino-3-(difluoromethyl)-2-fluorophenyl)ethyl)amino)-6-((2-methoxyethyl)amino)-2-methylquinazolin-7-yl)(morpholino)methanone] |
| ≤ 50 | CNc1cc2c(N[C@H](C)c3cc(N)cc(C(F)(F)F)c3)nc(C)nc2cc1C(=O)N1CCSC1 [Example 53, (R)-(4-((1-(3-amino-5-(trifluoromethyl)phenyl)ethyl)amino)-2-methyl-6-(methylamino)quinazoline-7-yl)(thiazolidine-3-yl)methanone] |
| ≤ 50 | CNc1cc2c(N[C@H](C)c3cc(N)cc(C(F)(F)F)c3)nc(C)nc2cc1C(=O)N1CC2COCC2C1 (stereo partly drawn) [Example 58, (4-(((R)-1-(3-amino-5-(trifluoromethyl)phenyl)ethyl)amino)-2-methyl-6-(methylamino)quinazoline-7-yl)(tetrahydro-1H-furo[3,4-c]pyrrol-5(3H)-yl)methanone] |
| 50 to 100 | Cc1nc(N[C@H](C)c2cc(N)cc(C(F)(F)F)c2)c2cc(NC(C)C)c(C(=O)N3CCOCC3)cc2n1 [Example 47, (R)-(4-((1-(3-amino-5-(trifluoromethyl)phenyl)ethyl)amino)-6-(isopropylamino)-2-methylquinazoline-7-yl)(morpholino)methanone] |
| > 100 | Cc1nc(N[C@H](C)c2cc(N)cc(C(F)(F)F)c2)c2cc(NC3CCOCC3)c(C(=O)N3CCOCC3)cc2n1 [Example 48, (R)-(4-((1-(3-amino-5-(trifluoromethyl)phenyl)ethyl)amino)-2-methyl-6-((tetrahydro-2H-pyran-4-yl)amino)quinazoline-7-yl)(morpholino)methanone] |
| > 100 | COc1cc2c(N[C@H](C)c3cc(N)cc(C(F)(F)F)c3)nc(C)nc2cc1NC1CCOCC1 [Example 69, (R)-NM-(1-(3-amino-5-(trifluoromethyl)phenyl)ethyl)-6-methoxy-2-methyl-N^7-(tetrahydro-2H-pyran-4-yl)quinazoline-4,7-diamine] |
| ≤ 50 | CNc1cc2c(N[C@H](C)c3cc(N)cc(C(F)(F)F)c3)nc(C)nc2cc1C(=O)N1CCS(=O)(=O)CC1 [Example 59, (R)-(4-((1-(3-amino-5-(trifluoromethyl)phenyl)ethyl)amino)-2-methyl-6-(methylamino)quinazolin-7-yl)(1,1-dioxothiomorpholino)methanone] |
| ≤ 50 | CNc1cc2c(N[C@H](C)c3cc(N)cc(C(F)(F)F)c3F)nc(C)nc2cc1C(=O)N1CCOCC1 [Example 50, (R)-(4-((1-(5-amino-2-fluoro-3-(trifluoromethyl)phenyl)ethyl)amino)-2-methyl-6-(methylamino)quinazoline-7-yl)(morpholino)methanone] |
| 50 to 100 | Cc1nc(N[C@H](C)c2cc(N)cc(C(F)(F)F)c2)c2cc(NC3CCCC3)c(C(=O)N3CCOCC3)cc2n1 [Example 45, (R)-(4-((1-(3-amino-5-(trifluoromethyl)phenyl)ethyl)amino)-6-(cyclopentylamino)-2-methylquinazoline-7-yl)(morpholino)methanone] |
